Test results from PMC6934184, “Selective DNA-PKcs inhibition extends the therapeutic index of localized radiotherapy and chemotherapy” (The Journal of Clinical Investigation, 2019).

Biological target: T1, SGK2 (Homo sapiens, UniProt Q9HBY8)
T1 construct: purchased Thermo Fisher Scientific (Life Technologies) SelectScreen
Test: SelectScreen Z'LYTE
Type: biochemical
In short: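 SelectScreen broad panel; activity (Z'LYTE, Adapta) plus binding formats. ATP: Km app for CSF1R Z'LYTE; 10 for CAMK1 Adapta. Readout = % per kinase.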

T1 sequence (Q9HBY8 whole entry): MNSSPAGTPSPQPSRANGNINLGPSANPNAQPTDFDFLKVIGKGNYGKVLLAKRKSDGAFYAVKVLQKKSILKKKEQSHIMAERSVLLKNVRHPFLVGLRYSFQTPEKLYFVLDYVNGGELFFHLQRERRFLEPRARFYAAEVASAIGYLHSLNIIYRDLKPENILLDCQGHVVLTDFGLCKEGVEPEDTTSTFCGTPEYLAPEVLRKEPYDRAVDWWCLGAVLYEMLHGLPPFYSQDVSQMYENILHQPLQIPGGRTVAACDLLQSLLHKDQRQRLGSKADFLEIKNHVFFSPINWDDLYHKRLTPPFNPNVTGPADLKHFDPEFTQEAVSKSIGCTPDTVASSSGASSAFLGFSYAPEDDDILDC

Work on CN(C(=O)CN1CCOCC1)c1ccc2sc3c(-c4cccc5c(=O)cc(N6CC7CCC(C6)O7)oc45)cccc3c2c1 [NU5455] yielded an inhibition at 1 µM of -2.7%.
